Laboratory results taken from US8906909B2 (Curis, Inc., priority 2009, dated 2014).

tested on: HDACs (HeLa cell nuclear extracts); assay: HDAC enzymatic activity, Biomol Color de Lys system; format: biochemical
Experimental: (e) An In Vitro Assay which Determines the Ability of a Test Compound to Inhibit HDAC Enzymatic Activity.
HDAC inhibitory activity was assessed using the Biomol Color de Lys system (AK-500, Biomol, Plymouth Meeting, Pa.). Briefly, HeLa cell nuclear extracts were used as a source of HDACs. Different concentrations of test compounds were serially diluted in dimethylsulphoxide (DMSO) and added to HeLa cell nuclear extracts in the presence of a colorimetric artificial substrate. Final assay condition contained 50 mM Tris/Cl, pH 8.0, 137 mM NaCl, 2.7 mM KCl and 1 mM MgCl2. Reactions were carried in room temperature (25° C.) for 1 hour before addition of developer for termination. Relative enzyme activity was measured in the WALLAC Victor II 1420 microplate reader as floorescence intensity (excitation: 350-380 nm; emission: 440-460 nm). Data were analyzed using GraphPad Prism (v4.0a) with a sigmoidal dose response curve fitting for IC50 calculation.

Row | Compound | IC50 [nM]
1 | O=C(CCCCNc1cc2nc(-c3cccc4[nH]ncc34)nc(N3CCOCC3)c2s1)NO [Compound 18] | < 100
2 | O=C(CCCCCNc1cc2nc(-c3cccc4[nH]ncc34)nc(N3CCOCC3)c2s1)NO [Compound 19] | < 100
3 | O=C(CCCCCCNc1cc2nc(-c3cccc4[nH]ncc34)nc(N3CCOCC3)c2s1)NO [Compound 20] | < 100
4 | CS(=O)(=O)N1CCN(Cc2cc3nc(-c4cccc5[nH]ncc45)nc(NCCCCC(=O)NO)c3s2)CC1 [Compound 34] | 100 to 1000
5 | CS(=O)(=O)N1CCN(Cc2cc3nc(-c4cccc5[nH]ncc45)nc(NCCCCCC(=O)NO)c3s2)CC1 [Compound 35] | < 100
6 | CS(=O)(=O)N1CCN(Cc2cc3nc(-c4cccc5[nH]ncc45)nc(NCCCCCCC(=O)NO)c3s2)CC1 [Compound 36] | < 100
7 | O=C(/C=C/c1cc2nc(-c3cccc4[nH]ncc34)nc(N3CCOCC3)c2s1)NO [Compound 46] | 1000 to 10000
8 | O=C(/C=C/c1ccc(S(=O)(=O)Nc2cc3nc(-c4cccc5[nH]ncc45)nc(N4CCOCC4)c3s2)cc1)NO [Compound 50] | < 100
9 | O=C(NO)c1cnc(N2CCN(S(=O)(=O)c3cc4nc(-c5cccc6[nH]ncc56)nc(N5CCOCC5)c4s3)CC2)nc1 [Compound 51] | 100 to 1000
10 | CN(Cc1cc2nc(-c3cccc4[nH]ncc34)nc(N3CCNCC3)c2s1)c1ncc(C(=O)NO)cn1 [Compound 60] | < 100
11 | CN1CCN(c2nc(-c3cccc4[nH]ncc34)nc3cc(CN(C)c4ncc(C(=O)NO)cn4)sc23)CC1 [Compound 61] | < 100
12 | CC(=O)N1CCN(c2nc(-c3cccc4[nH]ncc34)nc3cc(CN(C)c4ncc(C(=O)NO)cn4)sc23)CC1 [Compound 62] | < 100
13 | CN(Cc1cc2nc(-c3cccc4[nH]ncc34)nc(N3CCN(CCO)CC3)c2s1)c1ncc(C(=O)NO)cn1 [Compound 63] | < 100
14 | CC1CN(c2nc(-c3cccc4[nH]ncc34)nc3cc(CN(C)c4ncc(C(=O)NO)cn4)sc23)CC(C)O1 (stereo not shown) [Compound 65] | < 100
15 | CC1COCC(C)N1c1nc(-c2cccc3[nH]ncc23)nc2cc(CN(C)c3ncc(C(=O)NO)cn3)sc12 (stereo not shown) [Compound 66] | < 100

Second part, the compound after the results:

Row | IC50 [nM] | Compound
16 | > 10000 | O=C(NO)c1cc2nc(-c3cccc4[nH]ncc34)nc(N3CCOCC3)c2s1 [Compound 45]
17 | < 100 | O=C(NO)c1cnc(N2CCC(CNc3cc4nc(-c5cccc6[nH]ncc56)nc(N5CCOCC5)c4s3)CC2)nc1 [Compound 48]
18 | 100 to 1000 | CN(CC1CCN(c2ncc(C(=O)NO)cn2)CC1)c1cc2nc(-c3cccc4[nH]ncc34)nc(N3CCOCC3)c2s1 [Compound 49]
19 | < 100 | CN(Cc1cc2nc(-c3cccc4[nH]ncc34)nc(N3CCCCC3)c2s1)c1ncc(C(=O)NO)cn1 [Compound 67]
20 | < 100 | Cc1c(CN(C)c2ncc(C(=O)NO)cn2)sc2c(N3CCOCC3)nc(-c3cccc4[nH]ncc34)nc12 [Compound 68]
21 | < 100 | CC(C)(Nc1ncc(C(=O)NO)cn1)c1cc2nc(-c3cccc4[nH]ncc34)nc(N3CCOCC3)c2s1 [Compound 71]
22 | < 100 | O=C(NO)c1cnc(NCc2cc3cc(-c4cccc5[nH]ncc45)nc(N4CCOCC4)c3s2)nc1 [Compound 73]
23 | < 100 | CN(Cc1cc2cc(-c3cccc4[nH]ncc34)nc(N3CCOCC3)c2s1)c1ncc(C(=O)NO)cn1 [Compound 74]
24 | < 100 | CN(Cc1cc2nc(-c3cccc4[nH]ncc34)nc(N3CCOCC3)c2s1)c1ccc(C(=O)NO)cc1 [Compound 79]
25 | 100 to 1000 | O=C(O)CN(Cc1cc2nc(-c3cccc4[nH]ncc34)nc(N3CCOCC3)c2s1)c1ncc(C(=O)NO)cn1 [Compound 88]
26 | < 100 | COC(=O)CN(Cc1cc2nc(-c3cccc4[nH]ncc34)nc(N3CCOCC3)c2s1)c1ncc(C(=O)NO)cn1 [Compound 89]
27 | < 100 | NCCN(Cc1cc2nc(-c3cccc4[nH]ncc34)nc(N3CCOCC3)c2s1)c1ncc(C(=O)NO)cn1 [Compound 94]
28 | 100 to 1000 | CN(C)CCN(Cc1cc2nc(-c3cccc4[nH]ncc34)nc(N3CCOCC3)c2s1)c1ncc(C(=O)NO)cn1 [Compound 95]
